# Results published in US20230277669A1, “USES OF UROLITHINS” (Amazentis SA, priority 2022, published 2023).
# Tested on: CD8+ T cells
# Assay: In vitro stimulation of CD3+ T cells with aCD3/aCD28 beads in presence of UA
# Type: cell-based, FVB mice
# Conditions: 48 h, ICG001 with UA
# Procedure: (FIG. 2A) Scheme of CD3+ T-cell activation and analysis for various timepoints. (FIG. 2B) Reduced effector molecule expression on in vitro treated cells (n=3 pooled from three independent experiments). Isolated T-cells were stimulated for 48 h at the presence of UA or DMSO in the indicated doses. Data are mean ± SD, *p < 0.05 by two-sided t-test. (FIG. 2C) Reduced effector molecule expression on in vitro treated cells (n=3 pooled from three independent experiments). Isolated T-cells were stimulated for 48 h at the presence of UA or DMSO in the indicated doses. Data are mean ± SD, *p < 0.05 by two-sided t-test. (FIG. 2D) Quantification of T memory stem cells (TSCM: CD44^-CD62L^+Sca1^hi) after 24 h, 48 h and 96 h post stimulation with aCD3/aCD28 stimulation beads as indicated in (A) (n=4 pooled from four independent experiments). Data are mean ± SD, statistical analysis was performed via two-sided t-test (*p < 0.05; **p < 0.01; n.s. not significant). (FIG. 2E) Mitochondrial membrane potential within naïve CD62L^+CD44^-CD8^+ T cells, with TMRM^lo representing cells with low mitochondrial membrane potential. Cells were stimulated for 48 h as depicted in (A). Data are mean ± SD, n=4; ***p <0.001 by two-sided t-test. Experiment was repeated twice in independent experiments. (FIG. 2F) Representative histogram and quantification of memory marker CD95 expression in CD62L^+CD44^-CD8^+ cells, 48 hours after in vitro stimulation. Data are mean ± SD; n=5; ****p < 0.0001 by two-sided t-test. Data depicts one of two independent experiments. (FIG. 2G) Analysis of TIL of UA-fed mice, treated as depicted in FIG. 1J. Percentage of TSCM within CD8+ (G; n=7), as well as TCF1 (H; n=7) PD1^hi,Tim3^hi and CTLA4hi (I-K, all n=6) in the TIL CD8+ population are shown. Data are mean ± SD, statistical analysis was performed via two-sided t-test (*p < 0.05; **p < 0.01;, ***p <0.001.). Data depicts one of two independent experiments. (FIG. 2H) The same experiment as FIG. 2G with TCF1 (n=7) in the TIL CD8+ population. (FIG. 2I) The same experiment as FIG. 2G with PD1^hi (n=6) in the TIL CD8+ population. (FIG. 2J) The same experiment as FIG. 2G with Tim3^hi (n=6) in the TIL CD8+ population. (FIG. 2K) The same experiment as FIG. 2G with CTLA4hi (n=6) in the TIL CD8+ population. (FIG. 2L) Flow cytometry readout of ex vivo cytokine release of previously isolated TIL upon re-stimulation with PMA/ionomycin. Data are mean ± SD with n=7 per group. Statistical analysis was performed by two-sided t-test (**p < 0.01). One out of two independent experiments are shown. (FIG. 2M) Flow cytometry readout of ex vivo cytokine release of previously isolated TIL upon re-stimulation with PMA/ionomycin. Data are mean ± SD with n=7 per group. Statistical analysis was performed by two-sided t-test (**p < 0.01). One out of two independent experiments are shown.
# (FIG. 4A) Scheme of CD3+ T-cell activation and analysis for various timepoints in order to investigate mitophagy induction in vitro. (FIG. 4B) Analysis of mitochondrial membrane potential within CD8+ T cells, with TMRM^lo representing cells with low mitochondrial membrane potential. Analysis was performed six hours after stimulation with aCD/aCD28 stimulation beads at the presence of the indicated treatments. N=4 per group, *p < 0.05 by Mann Whitney U test. One of two independent experiments are shown. (FIG. 4C) Representative flow histogram and quantification of lysosome formation in CD8+ cells six hours after in vitro stimulation. MFI shown relative to DMSO controls, n=4. Data are normalised mean ± SD, statistical analysis by two-sided t-test. One out of two independent experiments are shown. (FIG. 4D) Mitotracker Red staining of in vitro stimulated CD8+ cells after 24 hours of Urolithin A (UA25 n=6; UA50 n=6) or vehicle control treatment (DMSO: n=4). A representative flow histogram depicting identification of Mitotracker^hi cells is shown. […]
compound,measurement,value
"O=C1[C@H](Cc2ccc(O)cc2)N2C(=O)CCN(C(=O)NCc3ccccc3)[C@H]2CN1Cc1cccc2ccccc12 [ICG001, reference compound]",UA-induced TCF1 expression,abrogated
same,UA-induced TSCM formation,abrogated
